{"source": "BindingDB's records for doi:10.1021/jm00348a007", "about": "(1982)", "key": {"[1]": {"biological_target": "Thymidine kinase 2, mitochondrial (rat)", "assay": "Competitive inhibition against rat Mitochondrial thymidine kinase"}, "[2]": {"biological_target": "Thymidine kinase 2, mitochondrial (rat)", "assay": "Non-competitive inhibition against rat mitochondrial thymidine kinase"}, "[3]": {"biological_target": "Thymidine kinase 2, mitochondrial (rat)", "assay": "Noncompetitive inhibition against rat mitochondrial thymidine kinase"}, "[4]": {"biological_target": "Thymidine kinase 2, mitochondrial (rat)", "assay": "Competitive inhibition against rat Mitochondrial thymidine kinase", "remark": "listed apart in the source"}}, "data": [{"compound": "CCO[C@H]1C[C@H](n2cc(C)c(=O)[nH]c2=O)O[C@@H]1CO", "note": "[1-(4-Ethoxy-5-hydroxymethyl-tetrahydro-furan-2-yl)-5-methyl-1H-pyrimidine-2,4-dione]", "values": [{"measurement": "Ki", "setting": "[1]", "value": 56, "unit": "µM"}]}, {"compound": "C/C=C/c1cn([C@H]2C[C@H](O)[C@@H](CO)O2)c(=O)[nH]c1=O", "note": "[1-(4-Hydroxy-5-hydroxymethyl-tetrahydro-furan-2-yl)-5-propenyl-1H-pyrimidine-2,4-dione(BVDU)]", "values": [{"measurement": "Ki", "setting": "[2]", "value": 0.51, "unit": "mM"}]}, {"compound": "Nc1nc(=O)n([C@H]2C[C@H](O)[C@@H](CO)O2)cc1I", "note": "[4-Amino-1-(4-hydroxy-5-hydroxymethyl-tetrahydro-furan-2-yl)-5-iodo-1H-pyrimidin-2-one]", "values": [{"measurement": "Ki", "setting": "[3]", "value": 3.5, "unit": "mM"}]}, {"compound": "Cc1cn([C@H]2C[C@H](O)[C@@H](CO)O2)c(=O)nc1N", "note": "[4-Amino-1-(4-hydroxy-5-hydroxymethyl-tetrahydro-furan-2-yl)-5-methyl-1H-pyrimidin-2-one]", "values": [{"measurement": "Ki", "setting": "[4]", "value": 1.3, "unit": "mM"}]}, {"compound": "Cc1cn(C2CC(O)C(CSCCCC(=O)O)O2)c(=O)[nH]c1=O", "note": "(stereo not given) [4-[3-Hydroxy-5-(5-methyl-2,4-dioxo-3,4-dihydro-2H-pyrimidin-1-yl)-tetrahydro-furan-2-ylmethylsulfanyl]-butyric acid]", "values": [{"measurement": "Ki", "setting": "[2]", "value": 8.5, "unit": "mM"}]}]}
